The test system of this assay is immune response to oxazolone. The experiment in a line: Rescue of the cyclophosphamide-inhibited delayed contact response to oxazolone in mice (Example A, b). Format: in vivo. To be noted: Mus musculus, ip, 48 h; cyclophosphamide alone, 200mg/kg intraperitoneal, two days after sensitisation with oxazolone; C57B1 mice.

Each structure is given as a SMILES string.

The term inhibition denotes the share of the control response that was lost under treatment. As to `O=P1(N(CCCl)CCCl)NCCCO1` (stereo not shown) [cyclophosphamide], the inhibition at 200 mg/kg was found to be 64%.

The record behind these values is patent EP0164204A1, “Novel pharmaceutically useful pyrimidines” (FISONS plc, priority 1984, dated 1985).
